Measurements: PMC12049818, “Identification of NUV-244 as a PNPLA3 I148M degrading small molecule” (iScience, 2025)

Experiments:
Hep3B cells = test: Incucyte growth curves, Hep3B; type: cell-based, human; details: 1μM or 5μM; compared to DMSO
Protocol: Huh7, Huh7 PNPLA3 I148M, Huh7 PNPLA3, Hep3b and LX-2 cells were seeded at a concentration of 1000 cells/well in 60 μl of growth medium on 384-well microtiter plates (Revvity, Waltham, MA, USA, PhenoPlate 384-well microplate, #6057308) and stored in a 37°C incubator with 5% CO2 and 95% humidity overnight. Next day cells were treated with DMSO as control (1% final concentration) or compound (1μM or 5μM final concentration) and cell density was recorded in the Incucyte® life cell imager (Sartorius, Göttingen, Germany) every 4 hours over a period of 5 days. Growth curves were generated by monitoring confluence over time. Proliferative capacity of PNPLA3 I148M-expressing cells was compared to control cells, and the restoration of proliferative fitness was analyzed.

PNPLA3 I148M [1] = molecular target: T1, PNPLA3 I148M (Homo sapiens, UniProt Q9NST1, I148M); test: Huh7 untagged PNPLA3 I148M immunofluorescence on lipid droplets; type: cell-based; parameters: host or cells: Huh7; details: anti-PNPLA3 IF; representative curve, Figure 3E
T1 sequence (Q9NST1 1-481 I148M): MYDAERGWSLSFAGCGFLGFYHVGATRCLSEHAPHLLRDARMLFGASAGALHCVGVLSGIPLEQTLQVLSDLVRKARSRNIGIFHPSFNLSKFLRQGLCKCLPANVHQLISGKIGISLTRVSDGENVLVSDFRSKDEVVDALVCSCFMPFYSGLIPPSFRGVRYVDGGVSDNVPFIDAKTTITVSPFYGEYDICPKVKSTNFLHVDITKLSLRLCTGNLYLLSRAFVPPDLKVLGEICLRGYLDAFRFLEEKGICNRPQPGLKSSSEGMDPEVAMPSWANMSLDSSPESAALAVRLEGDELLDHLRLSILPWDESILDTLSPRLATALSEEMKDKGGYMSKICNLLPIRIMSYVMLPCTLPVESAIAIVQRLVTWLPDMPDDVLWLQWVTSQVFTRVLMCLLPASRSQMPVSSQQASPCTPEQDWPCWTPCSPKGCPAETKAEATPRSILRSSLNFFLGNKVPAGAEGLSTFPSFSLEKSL
Protocol: Even though C-terminal tagging is reported not to interfere with PNPLA3 localization,[20] we established an assay to exclude the possibility that C-terminal tagging of PNPLA3 with tagRFP could alter PNPLA3 response to NUV-244 on lipid droplets. For this we generated Huh7 cell lines that express untagged variants of PNPLA3 I148M or PNPLA3 WT and visualized PNPLA3 on lipid droplets by immunofluorescence (Figures 3C, 3D, and S3A).
Cells were fixed with 4% paraformaldehyde for 15 minutes at room temperature. Cells were blocked with 0.2 M glycine, 0.1 mg/mL saponin, and 30 mg/mL bovine serum albumin (BSA) (all Sigma Aldrich) in PBS for 1 hour. Cells were washed 1x with washing buffer (0,1 mg/ml saponin + 1 mg/ml Bovine serum albumin) using a Blue Washer (Blue Cat Bio). Mouse anti-human ADPN (PNPLA3, C-8, #sc-390252, Santa Cruz) and rabbit anti-human PNPLA2 (Sigma Aldrich, #HPA055173-25UL) primary antibodies and appropriate secondary antibodies conjugated with Alexa-Fluor 647 (Jackson ImmunoResearch) were used. […]
Images were acquired by an Opera Phenix confocal spinning disc microscope system (Revvity, Waltham, MA, USA) with a 20x or 40x water objective at 405 nm (Hoechst), 488 nm (BODIPY) and 647 nm. Quantification was carried out with the Harmony (Revvity, Waltham, MA, USA) or MetaXpress software (Molecular Devices). […]

PNPLA3 I148M [2] = molecular target: T1, PNPLA3 I148M; test: Western blot anti-PNPLA3, Huh7 PNPLA3 I148M; type: cell-based; parameters: host or cells: Huh7; details: 5µM; 24h; two independent Western Blots, Mean +/- Stdev
Protocol: For SDS-PAGE and subsequent western blotting cells were harvested in 1x lysis buffer (50 mM Tris-Cl, pH 7.5, 150 mM NaCl, 1 mM EDTA, 1% Triton X-100) supplemented with complete mini protease inhibitor cocktail (Roche). Total protein concentration of samples was determined with a Bicinchoninic Acid (BCA) protein assay. Cell lysates were boiled for 10 min at 99°C with 1x NuPAGE LDS Sample Buffer and loaded onto a 4-12% Tris-Glycine SDS-PAGE gel. For immunoblotting proteins were transferred to a nitrocellulose membrane (0.2 μm pore size, Schleicher & Schuell) and blocked with Intercept (PBS) Blocking buffer (Licor), incubated with primary antibodies anti-PNPLA3 (1:500, C-8 Santa Cruz, SC-390252), anti-PNPLA3 (1:1000, Millipore, MABS2174) and anti-HSP90 (1:1000, Cell Signaling, #4877), and subsequently incubated with secondary antibodies IRDye 680 or IRDye 800 (1:2000; LI-COR Biosciences). Infrared signal was detected using the Odyssey imaging system (Licor). […]
a. Huh7, PNPLA3 I148M b. Huh7, PNPLA3 I148M-tagRFP […]
control NUV-244 control NUV-244
Supplemental Fig. 9: Western Blot NUV-244 a. […] PNPLA3 bands at 53kDa (unmodified in a.) or 80 kDa (PNPLA3 I148M-tagRFP) were quantified (signal above local background, normalized to loading control using LICOR Odyssey CLx / Image Studio) on two independent Western Blots and percent of intensity compared to DMSO controls calculated (Mean +/ - Stdev). […]

## Cc1cccc(Cc2nc(C)c(C(=O)Nc3cc(O)ccc3Cl)s2)c1 [NUV-244]
Hep3B cells
  effect on proliferative capacity, Hep3B: no effects
PNPLA3 I148M [1]
  EC50: 153 nM
PNPLA3 I148M [2]
  PNPLA3 band, percent of intensity compared to DMSO controls: 67+/-12%
